Reference: ChEMBL document CHEMBL5518236, “Discovery of Clinical Candidate AZD5462, a Selective Oral Allosteric RXFP1 Agonist for Treatment of Heart Failure” (J Med Chem, 2024)

Key:
Relaxin receptor 1 [1] = biological target: T1, Relaxin receptor 1 (Rattus norvegicus, UniProt Q6R6I6); assay: Agonist activity at rat RXFP1 expressed in CHO-K1 cells assessed as increase in cAMP level measured after 2 hrs by HTRF cAMP assay; format: functional, cell-based
T1 sequence (Q6R6I6 whole entry): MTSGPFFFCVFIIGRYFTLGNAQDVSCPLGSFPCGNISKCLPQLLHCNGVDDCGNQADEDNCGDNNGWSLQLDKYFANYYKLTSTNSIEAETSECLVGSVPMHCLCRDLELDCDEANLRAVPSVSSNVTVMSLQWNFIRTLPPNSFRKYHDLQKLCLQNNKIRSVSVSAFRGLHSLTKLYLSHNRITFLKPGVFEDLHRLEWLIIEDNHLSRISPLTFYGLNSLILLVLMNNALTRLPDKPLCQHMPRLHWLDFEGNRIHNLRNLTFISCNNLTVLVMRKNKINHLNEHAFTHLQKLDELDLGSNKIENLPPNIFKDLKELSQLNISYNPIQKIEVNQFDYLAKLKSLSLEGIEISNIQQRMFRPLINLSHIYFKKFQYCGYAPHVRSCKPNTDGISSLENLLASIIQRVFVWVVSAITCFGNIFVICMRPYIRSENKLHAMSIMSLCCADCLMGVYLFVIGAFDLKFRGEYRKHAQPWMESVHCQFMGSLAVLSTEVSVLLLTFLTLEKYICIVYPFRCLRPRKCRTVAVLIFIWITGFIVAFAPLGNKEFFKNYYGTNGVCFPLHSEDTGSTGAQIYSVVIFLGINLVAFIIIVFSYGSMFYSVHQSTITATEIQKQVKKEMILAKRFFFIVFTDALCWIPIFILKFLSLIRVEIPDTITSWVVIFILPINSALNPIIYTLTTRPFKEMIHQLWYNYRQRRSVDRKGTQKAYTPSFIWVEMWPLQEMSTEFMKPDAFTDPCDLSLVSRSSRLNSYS

[2] = Metabolic stability in rat hepatocytes assessed as unbound intrinsic clearance measured per 10^6 viable cells/ml at 1 uM measured upto 120 mins by LC-MS/MS analysis; format: ADME, cell-based, Hepatocyte; conditions: 2 h
[3] = Oral bioavailability in Han Wistar rat at 9.3 micromol/kg by LC-MS/MS analysis; format: ADME, organism-based; conditions: in vivo, 9.3 µmol/kg
Relaxin receptor 1 [4] = biological target: T2, Relaxin receptor 1 (Mus musculus, UniProt Q6R6I7)
T2 sequence (Q6R6I7 whole entry): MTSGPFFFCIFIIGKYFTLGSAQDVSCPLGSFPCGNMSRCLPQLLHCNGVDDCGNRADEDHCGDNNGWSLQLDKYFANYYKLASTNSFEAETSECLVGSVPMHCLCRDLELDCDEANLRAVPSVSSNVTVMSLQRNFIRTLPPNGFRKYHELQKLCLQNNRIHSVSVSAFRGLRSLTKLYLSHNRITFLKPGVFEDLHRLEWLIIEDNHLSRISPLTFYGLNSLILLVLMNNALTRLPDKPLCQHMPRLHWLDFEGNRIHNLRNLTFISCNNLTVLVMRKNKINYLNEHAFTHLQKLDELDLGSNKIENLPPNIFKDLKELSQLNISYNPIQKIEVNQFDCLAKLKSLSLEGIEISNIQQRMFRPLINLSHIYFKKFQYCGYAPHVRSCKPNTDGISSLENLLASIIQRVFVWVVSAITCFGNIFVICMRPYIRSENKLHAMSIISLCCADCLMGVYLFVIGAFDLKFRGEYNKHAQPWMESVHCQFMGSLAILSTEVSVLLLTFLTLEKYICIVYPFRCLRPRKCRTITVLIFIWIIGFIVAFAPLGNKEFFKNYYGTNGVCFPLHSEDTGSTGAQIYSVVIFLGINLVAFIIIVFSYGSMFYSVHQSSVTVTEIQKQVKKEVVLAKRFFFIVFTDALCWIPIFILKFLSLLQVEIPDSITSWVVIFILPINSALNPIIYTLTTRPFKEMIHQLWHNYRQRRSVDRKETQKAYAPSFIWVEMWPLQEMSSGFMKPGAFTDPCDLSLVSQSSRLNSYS
Description: Agonist activity at mouse RXFP1 expressed in CHO-K1 cells assessed as increase in cAMP level measured after 2 hrs by HTRF cAMP assay

[5] = Metabolic stability in human hepatocytes assessed as intrinsic clearance measured per 10^6 viable cells/ml at 1 uM measured upto 120 mins by LC-MS/MS analysis; format: ADME, cell-based, Hepatocyte; conditions: read-out: CLH
[6] = Metabolic stability in human hepatocytes assessed as unbound intrinsic clearance measured per 10^6 viable cells/ml at 1 uM measured upto 120 mins by LC-MS/MS analysis; format: ADME, cell-based, Hepatocyte; conditions: 2 h
[7] = Octanol/water partition coefficient, logD of the compound at pH 7.4 by shake flask method; format: physicochemical
[8] = Metabolic stability in human liver microsomes assessed as intrinsic clearance at 1 uM measured upto 30 mins by LC-MS/MS analysis; format: ADME, Microsome; conditions: read-out: CLH
[9] = Clearance in Han Wistar rat at 0.93 micromol/kg, iv by LC-MS/MS analysis; format: ADME, organism-based; conditions: in vivo, dose 0.93 µmol/kg
[10] = Half life in Han Wistar rat at 0.93 micromol/kg, iv by LC-MS/MS analysis; format: ADME, organism-based; conditions: in vivo, dose 0.93 µmol/kg
[11] = Metabolic stability in human liver microsomes assessed as unbound intrinsic clearance at 1 uM measured upto 30 mins by LC-MS/MS analysis; format: ADME, Microsome; conditions: 0.5 h
[12] = Protein binding in rat plasma assessed as fraction unbound at 5 uM measured after 18 hrs by LC-MS/MS analysis; format: ADME, cell-free; conditions: read-out: PPB
[13] = Volume of distribution at steady state in Han Wistar rat at 0.93 micromol/kg, iv by LC-MS/MS analysis; format: ADME, organism-based; conditions: in vivo, dose 0.93 µmol/kg, read-out: Vdss
Relaxin receptor 1 [14] = biological target: T3, Relaxin receptor 1 (Homo sapiens, UniProt Q9HBX9); assay: Agonist activity at human RXFP1 expressed in HEK293 cells coexpressing GRK2 assessed as beta-arrestin internalization by BRET assay relative to control
T3 sequence (Q9HBX9 whole entry): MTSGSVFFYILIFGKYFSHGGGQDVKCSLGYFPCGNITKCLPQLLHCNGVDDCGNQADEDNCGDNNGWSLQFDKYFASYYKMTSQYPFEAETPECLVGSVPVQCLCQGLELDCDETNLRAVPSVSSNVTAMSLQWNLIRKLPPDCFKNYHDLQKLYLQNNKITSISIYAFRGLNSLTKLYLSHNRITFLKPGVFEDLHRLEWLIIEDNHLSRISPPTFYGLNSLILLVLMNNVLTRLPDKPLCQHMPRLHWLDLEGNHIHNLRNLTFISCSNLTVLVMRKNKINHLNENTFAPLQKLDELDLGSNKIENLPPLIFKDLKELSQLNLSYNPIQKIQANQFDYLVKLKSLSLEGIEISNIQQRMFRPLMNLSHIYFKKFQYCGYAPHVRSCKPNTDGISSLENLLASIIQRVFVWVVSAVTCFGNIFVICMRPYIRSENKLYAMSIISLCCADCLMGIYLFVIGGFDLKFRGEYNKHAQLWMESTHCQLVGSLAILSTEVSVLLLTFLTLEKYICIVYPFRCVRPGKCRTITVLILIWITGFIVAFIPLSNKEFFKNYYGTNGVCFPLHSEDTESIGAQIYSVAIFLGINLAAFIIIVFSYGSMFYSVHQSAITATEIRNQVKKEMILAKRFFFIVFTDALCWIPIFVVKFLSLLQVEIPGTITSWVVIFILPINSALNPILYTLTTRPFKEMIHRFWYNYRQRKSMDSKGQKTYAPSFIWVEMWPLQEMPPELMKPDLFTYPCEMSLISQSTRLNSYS

Relaxin receptor 1 [15] = biological target: T3, Relaxin receptor 1; assay: Agonist activity at human RXFP1 expressed in CHO-K1 cells assessed as dynamic mass redistribution (DMR) measured after 60 mins by G-protein coupling DMR assay
Relaxin receptor 1 [16] = biological target: T3, Relaxin receptor 1; assay: Agonist activity at human RXFP1 expressed in HEK293 cells assessed as ERK phosphorylation measured after 24 hrs by HTRF assay
Relaxin receptor 1 [17] = biological target: T3, Relaxin receptor 1; assay: Agonist activity at human RXFP1 expressed in HEK293 cells assessed as cAMP production measured after 15 mins by BRET sensor assay
Relaxin receptor 1 [18] = biological target: T3, Relaxin receptor 1; assay: Agonist activity at human RXFP1 expressed in HEK293 cells co-expressing G-alphaz assessed as cAMP production measured after 15 mins by BRET sensor assay
Relaxin receptor 1 [19] = biological target: T3, Relaxin receptor 1; assay: Agonist activity at human RXFP1 expressed in CHO-K1 cells assessed as dynamic mass redistribution (DMR) measured after 60 mins pretreated with PTX by G-protein coupling DMR assay
Relaxin receptor 1 [20] = biological target: T3, Relaxin receptor 1; assay: Agonist activity at human RXFP1 expressed in HEK293 cells co-expressing G-alphas assessed as cAMP production measured after 15 mins by BRET sensor assay
Relaxin receptor 1 [21] = biological target: T3, Relaxin receptor 1; assay: Agonist activity at human RXFP1 expressed in CHO-K1 cells assessed as dynamic mass redistribution (DMR) measured after 60 mins pretreated with UBO-QIC by G-protein coupling DMR assay
[22] = Protein binding in human plasma assessed as fraction unbound at 5 uM measured after 18 hrs by LC-MS/MS analysis; format: ADME, cell-free; conditions: read-out: PPB
[23] = Efflux ratio of apparent permeability from basolateral side to apical side over apical side to basolateral side in human Caco-2 cells at pH 7.4 by LC-MS/MS analysis; conditions: Caco-2, pH 7.4
Relaxin receptor 1 [24] = biological target: T3, Relaxin receptor 1
Description: Agonist activity at human RXFP1 expressed in CHO cells assessed as increase in cAMP level measured after 2 hrs by HTRF cAMP assay

[25] = Apparent permeability across apical to basolateral side in human Caco-2 cells at pH 7.4 by LC-MS/MS analysis; format: ADME, cell-based; conditions: Caco-2, pH 7.4

COc1cc(C#N)c(O[C@H]2CC[C@@](C)(C(=O)O)CC2)cc1C(=O)N[C@@H]1[C@H]2CC[C@H](C2)[C@@H]1C(=O)NCC(C)(C)C
EC50 (Relaxin receptor 1 [1]): 15800 nM | CL free [2]: 15 µL/min | bioavailability [3]: 61% | EC50 (Relaxin receptor 1 [4]): 1260 nM | hepatocyte CLint at 1 µM [5]: < 1.3 µL/min/1e6 cells | CL free [6]: < 2 µL/min | logD [7]: 2.3 | microsomal CLint at 1 µM [8]: < 3 µL/min/mg | clearance [9]: 41 mL/min/kg | half-life [10]: 2 h | CL free [11]: < 4.3 µL/min/mg | fraction unbound at 18 h, 5 µM [12]: 0.078 | Vd [13]: 0.55 L/kg

COc1cc(F)c(O[C@H]2CC[C@@](C)(C(=O)O)CC2)cc1C(=O)N[C@@H]1[C@H]2CC[C@H](C2)[C@@H]1C(=O)Nc1ccc(F)c(S(F)(F)(F)(F)F)c1
EC50 (Relaxin receptor 1 [14]): 1.51 nM | EC50 (Relaxin receptor 1 [15]): 0.0251 nM | EC50 (Relaxin receptor 1 [16]): 3.16 nM | EC50 (Relaxin receptor 1 [17]): 0.0316 nM | EC50 (Relaxin receptor 1 [18]): 2.51 nM | hepatocyte CLint at 1 µM [5]: 21 µL/min/1e6 cells | CL free [6]: 2.1 10^3uL/min | logD [7]: 4.9 | microsomal CLint at 1 µM [8]: 61 µL/min/mg | EC50 (Relaxin receptor 1 [19]): 0.02 nM | EC50 (Relaxin receptor 1 [20]): 0.316 nM | CL free [11]: 3.39 10^3uL/min/mg | EC50 (Relaxin receptor 1 [21]): 0.0251 nM | fraction unbound at 18 h, 5 µM [22]: < 0.0023

COc1cc(F)c(O[C@H]2CC[C@@](C)(C(=O)O)CC2)cc1C(=O)N[C@@H]1[C@H]2CC[C@H](C2)[C@@H]1C(=O)NCC(C)(C)C
efflux ratio [23]: 6.8 | hepatocyte CLint at 1 µM [5]: 2.7 µL/min/1e6 cells | CL free [6]: 4.3 µL/min | logD [7]: 3 | microsomal CLint at 1 µM [8]: 14 µL/min/mg | CL free [11]: 20 µL/min/mg | EC50 (Relaxin receptor 1 [24]): 39.8 nM | Papp A→B [25]: 81 ×10⁻⁶ cm/s
